According to patent publication US9487504B2, “Imidazolyl analogs as syk inhibitors” (Merck Sharp & Dohme Corp., priority 2012, dated 2016):
Like-named read-outs stand apart in the source and are kept apart here.

Molecular target: T1, recombinant human GST-Syk (Homo sapiens, UniProt P43405)
T1 construct: purchased Carna Biosciences 08-176
Experiment: Homogeneous Time-Resolved Fluorescence (HTRF) assay for the recombinant human Syk enzyme
Format: biochemical
Conditions: ATP 25 μM, 10-dose titration
Summary of the method: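 Recombinant GST-hSyk ([…]) was preincubated 10 min at room temperature with inhibitor (0.1% DMSO) in Tris pH 7.5, then reacted for 45 min with 250 nM biotinylated peptide, 5 mM Mg and 25 μM ATP. Phosphorylation was detected by HTRF (Eu-anti-phosphotyrosine/SA-APC). IC50 was derived from a 10-dose titration (10 μM–0.508 nM) with a 4-parameter fit.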

SMILES | IC50 (read-out: rhSYK Activity) [nM] | IC50 (read-out: rhSYK IC50) [nM]
Cc1cc(Nc2nccc(C(F)(F)F)n2)cc(-n2cnc([C@]3(O)CC[C@H](OC(=O)c4ccccc4)CC3)c2)c1 [Example 66, trans-4-hydroxy-4-[1-(3-methyl-5-{[4-(trifluoromethyl)pyrimidin-2-yl]amino}phenyl)-1H-imidazol-4-yl]cyclohexyl benzoate] | 100 to 1000 | 
Cc1cc(Nc2nccc(C(F)(F)F)n2)cc(-n2cc(C(C)(C)O)nc2C)c1 [Example 68, 2-[2-Methyl-1-(3-methyl-5-{[4-(trifluoromethyl)pyrimidin-2-yl]amino}phenyl)-1H-imidazol-4-yl]propan-2-ol] | 100 to 1000 | 
COC(=O)c1cn(-c2cccc(Nc3cc(Cl)ccn3)n2)cn1 [Example 69, Methyl 1-{6-[(4-chloropyridin-2-yl)amino]pyridin-2-yl}-1H-imidazole-4-carboxylate] | 100 to 1000 | 
O=C(c1cn(-c2cccc(Nc3nccc(C(F)(F)F)n3)c2)cn1)N1CCCC1 [Example 70, Pyrrolidin-1-yl[1-(3-{[4-(trifluoromethyl)pyrimidin-2-yl]amino}phenyl)-1H-imidazol-4-yl]methanone] | 100 to 1000 | 
Cc1cc(Nc2nccc(C)n2)cc(-n2cnc3cc(C(=O)O)ccc32)c1 [Example 72, 1-{3-methyl-5-[(4-methylpyrimidin-2-yl)amino]phenyl}-1H-benzimidazole-5-carboxylic acid] | 100 to 1000 | 
Cc1cc(Nc2cc(C(F)(F)F)ccn2)nc(-n2cnc(CCC(=O)O)c2)c1 [Example 74, 3-[1-(4-methyl-6-{[4-(trifluoromethyl)-pyridin-2-yl]amino}-pyridin-2-yl)-1H-imidazol-4-yl]-propanoic acid] | 100 to 1000 | 
Cc1cc(Nc2cc(Cl)ccn2)nc(-n2cnc(C(O)(C3CC3)C3CC3)c2)c1 [Example 80, (1-{6-[(4-chloropyridin-2-yl)amino]-4-methylpyridin-2-yl}-1H-imidazol-4-yl)(dicyclopropyl)-methanol] | ≤ 100 | 
OC(c1cn(-c2cccc(Nc3cc(Cl)ccn3)n2)cn1)(C1CC1)C1CC1 [Example 81, (1-{6-[(4-chloropyridin-2-yl)amino]pyridin-2-yl}-1H-imidazol-4-yl)(dicyclopropyl)-methanol] | ≤ 100 | 
OC(c1cn(-c2cccc(Nc3nccc(C(F)(F)F)n3)c2)cn1)(C1CC1)C1CC1 [Example 82, dicyclopropyl[1-(3-{[4-(trifluoromethyl)-pyrimidin-2-yl]amino}phenyl)-1H-imidazol-4-yl]methanol] | ≤ 100 | 
OC(c1cn(-c2cccc(Nc3cc(C(F)(F)F)ccn3)n2)cn1)(C1CC1)C1CC1 [Example 83, dicyclopropyl[1-(6-{[4-(trifluoromethyl)-pyridin-2-yl]amino}pyridin-2-yl)-1H-imidazol-4-yl]methanol] | ≤ 100 | 
Nc1cc(Nc2cc(C(F)(F)F)ccn2)nc(-n2cnc(C(O)(C3CC3)C3CC3)c2)c1 [Example 84] | ≤ 100 | 
COC(=O)c1cn(-c2cc(N)cc(Nc3cc(C(F)(F)F)ccn3)n2)cn1 [Example 85, Methyl 1-(4-amino-6-{[4-(trifluoromethyl)-pyridin-2-yl]amino}-pyridin-2-yl)-1H-imidazole-4-carboxylate] | ≤ 100 | 
Cc1ccnc(Nc2cc(C)cc(-n3cnc(C(O)(C4CC4)C4CC4)c3)n2)c1 [Example 86, dicyclopropyl(1-{4-methyl-6-[(4-methylpyridin-2-yl)amino]pyridin-2-yl}-1H-imidazol-4-yl)methanol] | ≤ 100 | 
Cc1ccnc(Nc2cc(C)cc(-n3cnc(C(C)(C)O)c3)n2)c1 [Example 87, 2-(1-{4-methyl-6-[(4-methylpyridin-2-yl)amino]pyridin-2-yl}-1H-imidazol-4-yl)propan-2-ol] | ≤ 100 | 
Cc1cc(Nc2nccc(C(F)(F)F)n2)cc(-n2cnc(C(=O)N3CCCC3)c2)c1 [Example 88, N-{3-methyl-5-[4-(pyrrolidin-1-ylcarbonyl)-1H-imidazol-1-yl]phenyl}-4-(trifluoromethyl)pyrimidin-2-amine] | ≤ 100 | 
Cc1cc(Nc2nccc(C(F)(F)F)n2)cc(-n2cnc(C(=O)NC(C)C)c2)c1 [Example 89, N-(1-methylethyl)-1-(3-methyl-5-{[4-(trifluoromethyl)pyrimidin-2-yl]amino}-phenyl)-1H-imidazole-4-carboxamide] | 100 to 1000 | 
CC(C)(O)c1cn(-c2cc(Cl)cc(Nc3cc(C(F)(F)F)ccn3)n2)cn1 [Example 90, 2-[1-(4-chloro-6-{[4-(trifluoromethyl)pyridin-2-yl]amino}pyridin-2-yl)-1H-imidazol-4-yl]propan-2-ol] | ≤ 100 | 
CC(C)(O)c1cn(-c2cc(C(F)(F)F)cc(Nc3cc(C(F)(F)F)ccn3)n2)cn1 [Example 91, 2-{1-[4-(trifluoro-methyl)-6-{[4-(trifluoromethyl)-pyridin-2-yl]amino}-pyridin-2-yl]-1H-imidazol-4-yl}propan-2-ol] | 100 to 1000 | 
Cc1cc(Nc2cc(C(F)(F)F)ccn2)nc(-n2cnc(C(C)(C)O)c2)c1 [Example 92, 2-[1-(4-methyl-6-{[4-(trifluoromethyl)pyridin-2-yl]amino}pyridin-2-yl)-1H-imidazol-4-yl]propan-2-ol] | ≤ 100 | 
COC(=O)c1cn(-c2cc(C)cc(Nc3cc(C(F)(F)F)ccn3)n2)cn1 [Example 93, Methyl 1-(4-methyl-6-{[4-(trifluoromethyl)-pyridin-2-yl]amino}-pyridin-2-yl)-1H-imidazole-4-carboxylate] | ≤ 100 | 
CC(C)(O)c1cn(-c2cccc(Nc3cc(C(F)(F)F)ccn3)n2)cn1 [Example 94, 2-[1-(6-{[4-(trifluoromethyl)-pyridin-2-yl]amino}-pyridin-2-yl)-1H-imidazol-4-yl]propan-2-ol] | ≤ 100 | 
Cc1cc(Nc2cc(Cl)ccn2)nc(-n2cnc(C(C)(C)O)c2)c1 [Example 95, 2-(1-{6-[(4-chloropyridin-2-yl)amino]-4-methylpyridin-2-yl}-1H-imidazol-4-yl)propan-2-ol] | ≤ 100 | 
COC(=O)c1cn(-c2cccc(Nc3cc(C(F)(F)F)ccn3)n2)cn1 [Example 96, Methyl 1-(6-{[4-(trifluoromethyl)pyridin-2-yl]amino}pyridin-2-yl)-1H-imidazole-4-carboxylate] | ≤ 100 | 
COC(=O)c1cn(-c2cc(C)cc(Nc3cc(Cl)ccn3)n2)cn1 [Example 97, Methyl 1-{6-[(4-chloropyridin-2-yl)amino]-4-methylpyridin-2-yl}-1H-imidazole-4-carboxylate] | ≤ 100 | 
COC(=O)c1cn(-c2cc(C)cc(Nc3nccc(C(F)(F)F)n3)c2)cn1 [Example 98, Methyl 1-(3-methyl-5-{[4-(trifluoromethyl)-pyrimidin-2-yl]amino}phenyl)-1H-imidazole-4-carboxylate] | ≤ 100 | 

The next lines start with the values.

IC50 (read-out: rhSYK Activity) [nM] | IC50 (read-out: rhSYK IC50) [nM] | SMILES
≤ 100 |  | Cc1cc(Nc2cc(C(F)(F)F)ccn2)nc(-n2cnc([C@]3(O)CC[C@H](OC(=O)c4ccccc4)CC3)c2)c1 [Example 63, trans-4-hydroxy-4-[1-(4-methyl-6-{[4-(trifluoromethyl)pyridin-2-yl]amino}pyridin-2-yl)-1H-imidazol-4-yl]cyclohexyl benzoate]
≤ 100 |  | Cc1cc(Nc2cc(C(F)(F)F)ccn2)nc(-n2cnc([C@]3(O)CC[C@@H](OC(=O)c4ccccc4)CC3)c2)c1 [Example 64, cis-4-hydroxy-4-[1-(4-methyl-6-{[4-(trifluoromethyl)pyridin-2-yl]amino}pyridin-2-yl)-1H-imidazol-4-yl]cyclohexyl benzoate]
≤ 100 |  | Cc1cc(Nc2nccc(C(F)(F)F)n2)cc(-n2cnc(C3(O)CCC(O)CC3)c2)c1 (stereo not drawn) [Example 65, trans-1-[1-(3-methyl-5-{[4-(trifluoromethyl)pyrimidin-2-yl]amino}phenyl)-1H-imidazol-4-yl]cyclohexane-1,4-diol]
≤ 100 |  | Cc1cc(Nc2nccc(C(F)(F)F)n2)cc(-n2cc(C(=O)O)nc2C)c1 [Example 67, 2-Methyl-1-(3-methyl-5-{[4-(trifluoromethyl)pyrimidin-2-yl]amino}phenyl)-1H-imidazole-4-carboxylic acid]
≤ 100 | 1.68 | Cc1cc(Nc2nccc(C(F)(F)F)n2)cc(-n2cnc(-c3ccc(C(=O)O)cc3)c2)c1 [Example 71, 4-[1-(3-methyl-5-{[4-(trifluoromethyl)pyrimidin-2-yl]amino}-phenyl)-1H-imidazol-4-yl]benzoic acid]
≤ 100 |  | COC(=O)c1ccc2c(c1)ncn2-c1cc(C)cc(Nc2nccc(C)n2)c1 [Example 73, Methyl 1-{3-methyl-5-[(4-methyl-pyrimidin-2-yl)amino]phenyl}-1H-benzimidazole-5-carboxylate]
≤ 100 |  | Cc1cc(Nc2nccc(C3CC3)n2)cc(-n2cnc(CCC(=O)O)c2)c1 [Example 75, 3-(1-{3-[(4-cyclopropylpyrimidin-2-yl)amino]-5-methylphenyl}-1H-imidazol-4-yl)propanoic acid]
≤ 100 |  | Cc1cc(Nc2nccc(C(F)(F)F)n2)cc(-n2cnc(CCC(=O)O)c2)c1 [Example 76, 3-[1-(3-methyl-5-{[4-(trifluoromethyl)pyrimidin-2-yl]amino}-phenyl)-1H-imidazol-4-yl]propanoic acid]
≤ 100 |  | Cc1cc(Nc2nccc(C(F)(F)F)n2)cc(-n2cnc(CC#N)c2)c1 [Example 77, [1-(3-methyl-5-{[4-(trifluoromethyl)pyrimidin-2-yl]amino}-phenyl)-1H-imidazol-4-yl]acetonitrile]
≤ 100 |  | Cc1cc(Nc2nccc(C(F)(F)F)n2)cc(-n2cnc(C(=O)O)c2)c1 [Example 78, 1-(3-methyl-5-{[4-(trifluoromethyl)-pyrimidin-2-yl]amino}-phenyl)-1H-imidazole-4-carboxylic acid]
≤ 100 |  | Nc1cc(Nc2cc(Cl)ccn2)nc(-n2cnc(C(O)(C3CC3)C3CC3)c2)c1 [Example 79, (1-{4-amino-6-[(4-chloropyridin-2-yl)amino}pyridin-2-yl}-1H-imidazol-4-yl)(dicyclopropyl)methanol]
